Measured values taken from the supplement of paper PMC10307832.

What was measured:
Experiment in all cases: relative viability (nuclei count vs DMSO), 5 days (fraction); higher = more cells survive
[1] = compound: C1COCCN1C2=NC(=NC3=C2OC4=C3C=CC=N4)C5=CC(=CC=C5)NC(=O)C6=CN=C(C=C6)N + CC1(C)CCC(c2ccc(Cl)cc2)=C(CN2CCN(c3ccc(C(=O)NS(=O)(=O)c4ccc(N[C@H](CCN5CCOCC5)CSc5ccccc5)c(S(=O)(=O)C(F)(F)F)c4)cc3)CC2)C1 [Navitoclax] (partner 0.5 µM)
Outline: (§1)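 The day after seeding in 1536-well plates, lung cancer cell lines were treated by pin tool with a single drug, or with a fixed anchor-drug dose together with five library-drug doses (not always all listed) in √10 steps. After 5 days, a combined fix-and-stain solution (final 0.05% Triton X-100, 1% formaldehyde, 1 ug/ml Hoechst) was added. Nuclei counted on 4× images gave relative viability as treated counts over vehicle counts, reported as the median of duplicate plates.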

[2] = compound: C1COCCN1C2=NC(=NC3=C2OC4=C3C=CC=N4)C5=CC(=CC=C5)NC(=O)C6=CN=C(C=C6)N + Cc1nc(NC(=O)N2CCC[C@H]2C(N)=O)sc1-c1ccnc(C(C)(C)C(F)(F)F)c1 [Alpelisib] (partner 2 µM)
Outline: as §1

SGI-1776 + Tozasertib = compound: CN1CCC(CNc2ccc3ncc(-c4cccc(OC(F)(F)F)c4)n3n2)CC1 [SGI-1776] + Cc1cc(Nc2cc(N3CCN(C)CC3)nc(Sc3ccc(NC(=O)C4CC4)cc3)n2)n[nH]1 [Tozasertib] (partner 0.1 µM)
Outline: as §1

Entinostat + Vorinostat = compound: Nc1ccccc1NC(=O)c1ccc(CNC(=O)OCc2cccnc2)cc1 [Entinostat] + O=C(CCCCCCC(=O)Nc1ccccc1)NO [Vorinostat] (partner 1 µM)
Outline: as §1

UMC-11
relative viability ([1]; first compound 0.02 µM): 0.278 | relative viability ([1]; first compound 0.06325 µM): 0.292 | relative viability ([1]; first compound 0.2 µM): 0.266 | relative viability ([1]; first compound 0.6325 µM): 0.284 | relative viability ([1]; first compound 2 µM): 0.246 | relative viability ([2]; first compound 0.02 µM): 1.06 | relative viability ([2]; first compound 0.06325 µM): 1.04 | relative viability ([2]; first compound 0.2 µM): 1.03 | relative viability ([2]; first compound 0.6325 µM): 1.08 | relative viability ([2]; first compound 2 µM): 0.593 | relative viability (SGI-1776 + Tozasertib; first compound 0.08 µM): 0.21 | relative viability (SGI-1776 + Tozasertib; first compound 0.8 µM): 0.194 | relative viability (SGI-1776 + Tozasertib; first compound 2.53 µM): 0.208 | relative viability (SGI-1776 + Tozasertib; first compound 8 µM): 0.197 | relative viability (Entinostat + Vorinostat; first compound 0.02 µM): 0.43 | relative viability (Entinostat + Vorinostat; first compound 0.06325 µM): 0.321 | relative viability (Entinostat + Vorinostat; first compound 0.2 µM): 0.242 | relative viability (Entinostat + Vorinostat; first compound 0.6325 µM): 0.181 | relative viability (Entinostat + Vorinostat; first compound 2 µM): 0.12
